From publication PMC13155568, “A plant-specific cytochrome b5–like protein is essential for phytosterol biosynthesis” (Science Advances, 2025)

Target: T1, CBR1 (Arabidopsis thaliana, UniProt Q9ZNT1)
T1 sequence (Q9ZNT1 1-281): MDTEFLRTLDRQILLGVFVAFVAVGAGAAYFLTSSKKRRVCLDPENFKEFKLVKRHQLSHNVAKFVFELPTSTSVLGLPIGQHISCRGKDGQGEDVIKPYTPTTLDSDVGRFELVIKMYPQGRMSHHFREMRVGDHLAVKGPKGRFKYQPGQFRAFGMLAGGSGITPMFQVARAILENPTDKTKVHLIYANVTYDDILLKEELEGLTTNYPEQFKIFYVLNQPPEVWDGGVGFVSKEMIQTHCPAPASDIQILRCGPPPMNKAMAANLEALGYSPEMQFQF
T1 sequence (O22704 22-121 partner limits assumed): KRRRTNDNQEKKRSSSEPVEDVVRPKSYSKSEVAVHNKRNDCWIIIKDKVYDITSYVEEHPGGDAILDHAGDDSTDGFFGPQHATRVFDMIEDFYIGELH
Assay: reduction of recombinant CB5LP followed by Soret shift
Assay type: biochemical
Details: 100 uM NADH, 9 uM CB5LP as electron acceptor, Tris-HCl pH 7.5, room temperature

Compound: NC(=O)C1=CN([C@@H]2O[C@H](COP(=O)(O)OP(=O)(O)OC[C@H]3O[C@@H](n4cnc5c(N)ncnc54)[C@H](O)[C@@H]3O)[C@@H](O)[C@H]2O)C=CC1 [NADH]
- reduction of recombinant CB5LP followed by Soret shift: CB5LP was effectively reduced by CBR1 in the presence of NADH
